Data from paper PMC12797170, “Potent Competitive Inhibitors of Ecto-5′-nucleotidase (CD73) based on 6‑(Het)aryl-7-deazapurine Ribonucleoside 5′‑O‑Bisphosphonates” (ACS Pharmacology & Translational Science, 2025).

Tested on: CD8+ T cells
Experiment: CD8+ T cell activation assay (CD25, IFN-γ, granzyme B)
Format: cell-based, human
Settings: granzyme B and IFN-γ, 60 h
Procedure: 6 CD73 inhibition partially reverses the immunosuppressive effect of adenosine generated from AMP in CD8 ^ + T cells. CD8^+ T cells were activated using CD3/CD28 activation beads in the presence of 2.5 μM EHNA, with or without 1 mM AMP and CD73 inhibitors (500 nM or 50 nM). A. CD25 expression. The percentage of CD8^+ T cells expressing the activation marker CD25 was measured by flow cytometry 60 h after activation. Data represent technical triplicates. B. Cytokine secretion. Granzyme B and IFN-γ levels in the culture supernatant were quantified by ELISA 60 h after activation. The data represent technical duplicates from two independently treated wells.
Peripheral blood was obtained from healthy donors at the Military University Hospital Prague, following informed consent. CD8+ T cells were enriched using the RosetteSep Human CD8+ T Cell Enrichment Cocktail ([…] Technologies) according to the manufacturer’s instructions and subsequently isolated by density gradient centrifugation using SepMate tubes ([…] Technologies). Residual red blood cells were lysed using a red blood cell lysis buffer (155 mM NH4Cl, 12 mM NaHCO3, 0.1 mM EDTA, pH = 7.1–7.4). The isolated CD8+ T cells were resuspended in complete RPMI and counted using an automated cell counter.
CD8+ T cells were seeded at 5 × 10^4 cells/well in 50 μL of complete RPMI in a flat-bottom 96-well plate. […] This was followed by the addition of 10 μL of a CD73 inhibitor at either 5 μM or 500 nM (experimental wells) or 10 μL of complete RPMI (control wells). Subsequently, 20 μL of 5 mM AMP was added to all wells except those serving as controls for maximal T cell activation. […]
Following incubation, supernatants were collected for quantification of IFN-γ and granzyme B using ELISA. […] Finally, stained cells were washed and analyzed using a BD LSRFortessa flow cytometer. Data were processed and analyzed using FlowJo software (version 10.8.1) and GraphPad Prism 10.
Secretion of IFN-γ and granzyme B was quantified using Human IFN-γ DuoSet ELISA and Human Granzyme B DuoSet ELISA (R&D Systems) according to the manufacturer’s instructions. […]

SMILES	cytokine rescue efficacy
Cc1nc(-c2cccc3ccccc23)c2ccn([C@@H]3O[C@H](COP(=O)(O)CP(=O)(O)O)[C@@H](O)[C@H]3O)c2n1 [18E.6]	weakest effects
Cc1nc(-c2ccc3ccccc3c2)c2ccn([C@@H]3O[C@H](COP(=O)(O)CP(=O)(O)O)[C@@H](O)[C@H]3O)c2n1 [18E.7]	weakest effects
